Where no end group is shown, it is not given here.
Legend:
Format in all cases: cell-based, human
[1] = system: minimal luciferase reporter (pGL3-TATA-Luc); test: TATA-containing minimal luciferase reporter assay in U2OS cells; conditions: 50 μM, 5 h
Experimental: DNA Transfection and Sequential β-Galactosidase/Luciferase Assay. For luciferase reporter assays, U2OS cells were cultured in 6-well dishes and transfected 24 h later with various reporter plasmids by the calcium precipitation method as previously described (Martin, K., et al. Nature 375, 691-694 (1995)). 24 h following precipitate removal, cells were exposed for 5 h to either vehicle (0.5% DMSO) or 50 μM of decoy peptide, prior to harvesting. Cells were scraped in 200 μl of lysis buffer and a single 10 μl aliquot of lysate was immediately used for sequential measurement of β-galactosidase and luciferase activity using the Dual Light System (Tropix). For protein overexpression experiments, U2OS cells were cultured in 6-well plates at a density of 1×10^5 cells/well and transfected 24 h later with Superfect reagent (QIAGEN).
(§1) FIG. 3: Analysis of E2F-responsive transcription in U2OS cells in response to decoy peptide treatment. (A) β-galactosidase/Luciferase assay of U2OS cells co-transfected with 0.1 μg of pCMV/β-galactosidase and 7.5 μg of the indicated luciferase reporter plasmids. Promoter activity of vehicle-treated samples was normalized to 100% and the activities of the peptide-treated samples were expressed relative to the vehicle-treated control. Values represent the average +/− standard deviation of at least two independent experiments; (B) Semi-quantitative RT-PCR analysis on total RNA for dhfr, cyclin-E, cyclin A2, PCNA, DNA Pola and cdc2 expression in U2OS cells exposed for 16 h to either vehicle (0.5% DMSO) or 50 μM of the indicated decoy peptides. H-actin was included as an internal control.
The PHD-bromodomain-interacting function of TRIP-Br proteins co-regulate E2F-dependent transcriptional activity in vivo. […] U2OS cells were chosen for this assay because they express functional E2F-1, DP-1, Rb and detectable levels of endogenous TRIP-Br1 (as assessed by Western blot analysis using a rabbit polyclonal anti-TRIP-Br1 antibody (Hsu, S. I. H., et al. EMBO J 20, 2273-2285 (2001)); data not shown). […]

[2] = system: U2OS cells; test: Cell number (Coulter counter) and viability (trypan blue) of U2OS cells; conditions: for total cell number over time: 50 μM, 0, 48 and 72 h, Coulter counter; for viable cells, trypan blue manual count: 50 μM, 72 h, compared to vehicle or *SCR
Experimental: Determination of cell number and viability. U2OS cells grown in 6-well dishes for 24 h were exposed to 2 ml of growth medium containing either vehicle (0.5% DMSO) or 50 μM decoy peptides for 48 or 72 h. Following treatment, the cells were washed twice with 1×PBS, harvested by trypsinization and re-suspended in 1 ml 1×PBS. 10 μl of cell suspension was taken from each sample and enumerated either electronically or manually. For electronic total cell counts, 10 μl of cell suspension was diluted in 20 ml of isoton® II buffer (Coulter®) and cell number was estimated using an electronic Coulter® counter. For manual counting of viable cells, 10 μl of cell suspension from each sample was mixed with equal volume of trypan blue stain (Sigma, 0.4% w/v in 1×PBS). The number of viable (unstained) cells was enumerated manually using a hemocytometer. FIG. 4: Time-dependent and dose-dependent anti-proliferative effects of the decoy peptides. (A) Time-dependent anti-proliferative effects of the decoy peptides. U2OS cells, exposed to either vehicle (0.5% DMSO) or 50 μM decoy peptides for either 24 or 48 h, were assayed for BrdU incorporation with a colorimetric ELISA assay. Values represent the average +/− standard deviation of two independent experiments; (B) Dose-dependent anti-proliferative effects of the decoy peptides. U2OS cells, exposed to 5, 10, 20 or 50 μM of *SCR (solid line and square), *Br1 (dashed line and triangle) or *Br2 (dashed line and circle) for 48 h, were assayed for BrdU incorporation with a colorimetric ELISA assay. Values represent the average +/− standard deviation of at least two independent experiments; (C) Cell proliferation analysis. Left panel: At 0, 48 and 72 h post decoy peptide treatment, total cell number was determined electronically using a Coulter® counter. Right panel: At 72 h post-treatment, cells were harvested and stained with trypan blue for viable cell count analysis.

[3] = system: E2F-regulated genes; test: Semi-quantitative RT-PCR of E2F-regulated genes in U2OS cells; conditions: 50 μM, 16 h
Experimental: Semi-quantitative RT-PCR. Total RNA was isolated from U2OS cells or U2OS-ER-E2F-1 cells (grown with or without 1.0 μM OHT and/or 10 μg/ml cycloheximide) using the TRIZOL® Reagent (Life Technologies). Total RNA (4 μg) was reverse transcribed using oligo-dT and M-MLV reverse transcriptase in a total reaction volume of 20 μl. Polymerase Chain Reactions (PCR) were carried out on 3 μl cDNA samples in the presence of […] deoxyribonucleotide triphosphates (dNTPs) and 40 μM of specific primer pairs in a total reaction volume of 50 μ. The cycling profile for PCR was as follow: 30 cycles of denaturation (94° C., 30 sec), annealing (51° C., 30 sec) and extension (72° C., 2 min), with a 2-minute initial denaturation step at 94° C. and a 10-minute terminal polishing step at 72° C. Sequences of gene-specific primers are available upon request. PCR amplification products were analyzed by agarose gel electrophoresis.
as §1

Sequence | transcriptional activity of the minimal reporter [1] | total cell number over time [2] | viable cells, trypan blue manual count [2] | cdc2 mRNA transcript level [3] | transcriptional activity of PCNA gene [3] | transcriptional activity of cyclin A2 gene [3] | transcriptional activity of cyclin-E gene [3] | expression profile of the genes under investigation relative to vehicle ([3]; six E2F-regulated genes) | DNA Polα mRNA expression level [3] | dhfr mRNA expression level [3]
ERQIKIWFQNRRMKWKKATGCLLDDGLEGLFEDID (ERQIKIWFQNRRMKWKKATGCLLDDGLEGLFEDID-NH2) [*Br1] | slight activation | nearly complete cessation of cell proliferation | significantly fewer viable cells | significant down regulation | unaffected | unaffected | unaffected |  |  | 
ERQIKIWFQNRRMKWKKGLDEDGLLLFCEGDTIAD (Peptide containing penetratin sequence from Drosophila and random peptide sequence) [*SCR, reference compound] | slight activation | nearly identical increments in cell number over time |  |  |  |  |  | negligible effects |  | 
ERQIKIWFQNRRMKWKKTGFLTDLTLDDILFADID (ERQIKIWFQNRRMKWKKTGFLTDLTLDDILFADID-NH2) [*Br2] | did not alter the transcriptional activity of the minimal reporter significantly | nearly complete cessation of cell proliferation | significantly fewer viable cells | significant down regulation | unaffected | unaffected | unaffected |  | down-regulated | down-regulated
